Assay results as given in patent US20230122540A1, “SYSTEMS AND METHODS TO TRACK THE EVOLUTION OF SINGLE CELLS” (Genentech, Inc., priority 2020, published 2023).

Experiments:
Type in all cases: cell-based, human
[1] = test system: ATF4, CHOP, GADD34; assay: qRT-PCR of pro-death genes downstream of ER stress; details: PC9 and NCI-H1975 cells, day three
Experimental: RNA extraction and qRT-PCR: RNA was extracted using Qiagen RNeasy Plus kit following manufacturer's instruction. RNA was reverse transcribed using High-Capacity cDNA Reverse Transcription Kit (Thermo Fisher Scientific Cat. No. 4368814). qPCRs were performed using TaqMan™ Fast Advanced Master Mix (Thermo Fisher Scientific Cat. No. 4444557) on ABI QuantStudio 7 Flex Real-Time PCR Systems. HPRT1 was used as the internal control to quantify relative gene expression levels. Taqman probes were obtained from Thermo Fisher Scientific (Cat. No. 431182, 4448490). These probes were used in the study: ATF4 Hs00909569_g1, DDIT3/CHOP Hs00358796_g1, PPP1R15A/GADD34 Hs00169585_m1, SLC7A5 Hs01001183_m1, ETV4 Hs00385910_m1, SPRY4 Hs00540086_m1, DUSP6 Hs04329643_s1, HPRT1 Hs02800695_m1.

[2] = test system: PC9 cells; assay: Caspase-Glo 3/7 cell death assay, EGFRi+CCT020312; details: Caspase-Glo 3/7, 24 h post-treatment
Experimental: Cell viability and cell death quantification: For experiments shown in FIGS. 24C, 27D, the indicated cells were seeded at desired densities in replicates in 24-well plates and allowed to attach overnight. The following day cells were treated with the indicated compounds. Media containing the appropriate compounds was replenished every 48 hours. At each media change, cell viabilities were quantified using CellTiter-Glo Luminescent Cell Viability Assay (Promega, G7572). For experiments shown in FIG. 191 and FIG. 29D, PC9 cells were seeded in replicates in 96-well plates and allowed to attach overnight. The following day cells were treated with the indicated compounds or compound combinations at the indicated concentrations. Induction of cell death was quantified 24 h post-treatment using Caspase-Glo 3/7 Assay System (Promega, G8093) and cell survival were measured 72 h post-treatment using CellTiter-Glo Luminescent Cell Viability Assay (Promega, G7572). CCT020312 was obtained from EMD Millipore (324879).

[3] = test system: NCI-H1975 cells; assay: Clonogenic / CellTiter-Glo assay with allosteric degraders; details: compared to osimertinib
Experimental: Clonogenic assay: Cells were seeded at desired densities in two to three replicates in 6-well plates and allowed to attach overnight. The following day cells were treated with the indicated compounds. Media containing the appropriate compounds was replenished every 48-72 hours. At the end of the assay, the cells were washed once with PBS, fixed and stained with crystal violet solution (Sigma Aldrich, HT90132) for 20 minutes, washed with water, and allowed to dry before scanning. For experiments shown in FIG. 18E erlotinib concentration were determined to match the cell viability effect to 1 μM GNE-069 in each cell line, so that 1 μM erlotinib was applied to PC-9 and HCC2935, and 100 nM erlotinib was applied to HCC4006 and HCC827. […]
Cell viability and cell death quantification: For experiments shown in FIGS. 24C, 27D, the indicated cells were seeded at desired densities in replicates in 24-well plates and allowed to attach overnight. […] At each media change, cell viabilities were quantified using CellTiter-Glo Luminescent Cell Viability Assay (Promega, G7572). […] Induction of cell death was quantified 24 h post-treatment using Caspase-Glo 3/7 Assay System (Promega, G8093) and cell survival were measured 72 h post-treatment using CellTiter-Glo Luminescent Cell Viability Assay (Promega, G7572). […]

| SMILES | induction of ISR genes in combination with erlotinib or osimertinib [1] | cell death induction in combination with erlotinib or osimertinib [2] | single agent anti-growth activity [3] |
| --- | --- | --- | --- |
| CCN(CC)CCC(=O)N1N=C(c2c(-c3ccccc3)c3cc(Br)ccc3[nH]c2=O)CC1c1ccc(Br)cc1 (stereo not drawn) [CCT020312] | further boosted induction of ISR genes by erlotinib and osimertinib | enhanced cell death induction | – |
| O=C(Nc1nccs1)C(c1cc(F)ccc1O)N1Cc2ccccc2C1=O (stereo not drawn) [EAI-045] | – | – | very modest single agent activity |
